These results are taken from patent US9561197B2 (Horizon Therapeutics, LLC, priority 2012, dated 2017).

For data set [1] the following is noted: Patient 2.
For data set [2] the following is noted: Patient 1.
Assay in data set [3]: not given
The source holds these as a separate data set.

Where two headings read alike, the source gives them in different places.

In the case of sodium phenylbutyrate [NaPBA], the ammonia in data set [1] (NaPBA 450 mg/Kg/day for one week) worked out at 20 µmol/L. The ammonia levels in data set [1] (NaPBA 600 mg/kg per day) is below 9 µmol/L.
On to `O=C(CCCc1ccccc1)OCC(COC(=O)CCCc1ccccc1)OC(=O)CCCc1ccccc1` [HPN-100, glyceryl tri-[4-phenylbutyrate]], for which the ammonia in data set [2] (HPN-100 9 mL/day, after overnight fasting) amounted to 55 µmol/L; the ammonia in data set [2] (HPN-100 9 mL/day, midday several hours after lunch) was 117 µmol/L; the ammonia in data set [2] (HPN-100 12 mL/day for one week, after overnight fasting) was 9 µmol/L; the ammonia in data set [2] (HPN-100 12 mL/day for one week, midday) amounted to 35 µmol/L; the ammonia (Patient 7, HPN-100 6 mL BID, follow up after 3 months (blood ammonia 85 μmol/L before therapy)) stood at 30 µmol/L; the ammonia in data set [3] (Patient 3, HPN-100 18 mL/day for the past month) stood at 22 µmol/L. Also, the “symptoms (headache, lack of appetite)” value in data set [2] (after one week at HPN-100 12 mL/day) was “all symptoms resolved”. The “episodes of HE” value (Patient 7, HPN-100 6 mL BID, during 3 months) was “no episodes of HE”. Also, under “human, in vivo”, the unusual symptoms entry is “did not report any unusual symptoms”. The “unusual symptoms such as dizziness, headache, or nausea” value (human, in vivo) is “had not experienced any unusual symptoms”. The compound further registered a PAGN in data set [3] (human, in vivo) of 259 µg/L. Also, the complaints entry in data set [3] (human, in vivo) is reported as “did not have any complaints”.
